According to ChEMBL document CHEMBL1201862, “PubChem BioAssay data set” (2004):
Activity calls are given as the source filed them. No rule for the calls is given here.

Key:
[1] = target: T1, Exodeoxyribonuclease V (Escherichia coli (strain K12), UniProt P04993+P07648+P08394); test: E. coli RecBCD inhibitors, dose response, counter-screen for AddAB inhibitor project, absorbance, V66 E. coli, mutant T4 phage (AID 492957); format: functional, cell-based, Escherichia coli str. K-12 substr. MG1655
T1 sequence (P04993 whole entry): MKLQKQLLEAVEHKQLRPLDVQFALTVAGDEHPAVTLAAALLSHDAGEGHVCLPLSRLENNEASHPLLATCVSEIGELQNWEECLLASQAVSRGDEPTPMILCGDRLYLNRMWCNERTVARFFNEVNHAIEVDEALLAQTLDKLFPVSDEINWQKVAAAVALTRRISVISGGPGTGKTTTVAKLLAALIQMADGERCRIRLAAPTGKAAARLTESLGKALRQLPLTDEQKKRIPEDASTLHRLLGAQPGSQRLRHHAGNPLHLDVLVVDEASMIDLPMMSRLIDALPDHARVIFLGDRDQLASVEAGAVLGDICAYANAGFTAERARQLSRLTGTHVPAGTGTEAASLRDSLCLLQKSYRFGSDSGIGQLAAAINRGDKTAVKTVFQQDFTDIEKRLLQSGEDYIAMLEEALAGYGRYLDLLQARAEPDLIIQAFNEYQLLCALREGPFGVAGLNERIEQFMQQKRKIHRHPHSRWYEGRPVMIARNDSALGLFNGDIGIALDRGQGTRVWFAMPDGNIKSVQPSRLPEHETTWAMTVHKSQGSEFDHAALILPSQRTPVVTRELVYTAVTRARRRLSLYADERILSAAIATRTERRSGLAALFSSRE
T1 sequence (P07648 whole entry): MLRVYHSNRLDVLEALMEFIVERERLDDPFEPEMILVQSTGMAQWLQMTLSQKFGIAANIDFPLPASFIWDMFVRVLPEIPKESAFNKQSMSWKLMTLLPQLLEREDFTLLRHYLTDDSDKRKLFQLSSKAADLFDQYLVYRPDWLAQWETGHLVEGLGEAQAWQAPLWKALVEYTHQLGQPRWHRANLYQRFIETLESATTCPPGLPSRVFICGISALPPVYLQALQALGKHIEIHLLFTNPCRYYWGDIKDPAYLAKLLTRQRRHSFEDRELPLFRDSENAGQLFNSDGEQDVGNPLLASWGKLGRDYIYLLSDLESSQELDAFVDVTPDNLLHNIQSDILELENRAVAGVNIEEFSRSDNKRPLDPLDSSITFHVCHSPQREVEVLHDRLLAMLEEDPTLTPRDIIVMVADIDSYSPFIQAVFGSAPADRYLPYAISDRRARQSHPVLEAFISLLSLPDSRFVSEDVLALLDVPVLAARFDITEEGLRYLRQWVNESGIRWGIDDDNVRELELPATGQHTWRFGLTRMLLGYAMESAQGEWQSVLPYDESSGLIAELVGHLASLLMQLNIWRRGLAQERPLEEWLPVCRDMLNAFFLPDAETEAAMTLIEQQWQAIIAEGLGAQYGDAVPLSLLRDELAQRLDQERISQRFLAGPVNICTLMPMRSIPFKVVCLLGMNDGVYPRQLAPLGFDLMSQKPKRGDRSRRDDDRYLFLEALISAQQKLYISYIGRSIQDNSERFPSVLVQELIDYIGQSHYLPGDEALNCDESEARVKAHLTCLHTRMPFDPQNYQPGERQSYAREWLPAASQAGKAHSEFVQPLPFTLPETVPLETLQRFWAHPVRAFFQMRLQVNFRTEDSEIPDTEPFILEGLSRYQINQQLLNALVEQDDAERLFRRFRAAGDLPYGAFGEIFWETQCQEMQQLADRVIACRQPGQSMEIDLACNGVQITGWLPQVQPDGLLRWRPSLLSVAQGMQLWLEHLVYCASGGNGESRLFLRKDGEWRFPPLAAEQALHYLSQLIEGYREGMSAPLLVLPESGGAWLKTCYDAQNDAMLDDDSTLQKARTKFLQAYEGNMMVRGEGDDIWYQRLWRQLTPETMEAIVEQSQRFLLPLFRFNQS
T1 sequence (P08394 whole entry): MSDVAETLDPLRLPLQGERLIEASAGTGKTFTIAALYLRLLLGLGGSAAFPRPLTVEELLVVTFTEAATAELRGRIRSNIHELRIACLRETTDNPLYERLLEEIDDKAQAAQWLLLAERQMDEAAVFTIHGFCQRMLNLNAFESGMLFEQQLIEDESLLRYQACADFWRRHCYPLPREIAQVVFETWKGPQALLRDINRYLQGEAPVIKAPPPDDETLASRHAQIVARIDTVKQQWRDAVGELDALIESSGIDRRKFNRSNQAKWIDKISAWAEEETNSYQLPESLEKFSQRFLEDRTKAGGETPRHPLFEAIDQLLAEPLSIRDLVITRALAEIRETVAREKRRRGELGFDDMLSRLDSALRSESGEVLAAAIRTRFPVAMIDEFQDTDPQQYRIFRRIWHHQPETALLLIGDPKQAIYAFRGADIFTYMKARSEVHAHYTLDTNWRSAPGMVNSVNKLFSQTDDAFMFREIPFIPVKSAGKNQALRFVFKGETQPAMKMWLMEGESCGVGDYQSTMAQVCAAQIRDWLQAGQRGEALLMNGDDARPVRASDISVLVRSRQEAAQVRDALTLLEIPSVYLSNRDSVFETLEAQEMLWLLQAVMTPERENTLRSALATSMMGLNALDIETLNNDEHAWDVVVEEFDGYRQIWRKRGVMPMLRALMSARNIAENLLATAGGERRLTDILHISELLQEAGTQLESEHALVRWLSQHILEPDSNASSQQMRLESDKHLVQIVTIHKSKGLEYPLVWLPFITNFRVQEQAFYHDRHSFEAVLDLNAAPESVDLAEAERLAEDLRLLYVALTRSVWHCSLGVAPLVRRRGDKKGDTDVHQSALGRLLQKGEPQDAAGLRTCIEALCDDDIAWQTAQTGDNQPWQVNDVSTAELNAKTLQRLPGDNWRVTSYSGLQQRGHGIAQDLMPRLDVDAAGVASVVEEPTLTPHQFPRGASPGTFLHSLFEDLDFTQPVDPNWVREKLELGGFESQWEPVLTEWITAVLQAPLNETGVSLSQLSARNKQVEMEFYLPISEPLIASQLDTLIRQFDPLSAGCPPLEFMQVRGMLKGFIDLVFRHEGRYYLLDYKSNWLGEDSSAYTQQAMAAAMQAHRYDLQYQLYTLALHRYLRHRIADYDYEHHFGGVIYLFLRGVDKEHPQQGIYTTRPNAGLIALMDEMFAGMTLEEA

[2] = target: Cyclin-dependent kinase 1 (Homo sapiens, UniProt P06493); format: functional;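 also: Kinome-wide panel profiling, with the target listed as panel member CDC2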
[3] = target: Cyclin-dependent kinase 5 (Homo sapiens, UniProt Q00535); format: functional;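 also: CDK5 measured as one member of a kinase profiling panel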
[4] = target: Calcium/calmodulin-dependent protein kinase type II subunit gamma (Homo sapiens, UniProt Q13555); format: functional
[5] = target: Casein kinase I isoform alpha (Homo sapiens, UniProt P48729); format: functional
Sequence of Casein kinase I isoform alpha (P48729 whole entry, canonical isoform): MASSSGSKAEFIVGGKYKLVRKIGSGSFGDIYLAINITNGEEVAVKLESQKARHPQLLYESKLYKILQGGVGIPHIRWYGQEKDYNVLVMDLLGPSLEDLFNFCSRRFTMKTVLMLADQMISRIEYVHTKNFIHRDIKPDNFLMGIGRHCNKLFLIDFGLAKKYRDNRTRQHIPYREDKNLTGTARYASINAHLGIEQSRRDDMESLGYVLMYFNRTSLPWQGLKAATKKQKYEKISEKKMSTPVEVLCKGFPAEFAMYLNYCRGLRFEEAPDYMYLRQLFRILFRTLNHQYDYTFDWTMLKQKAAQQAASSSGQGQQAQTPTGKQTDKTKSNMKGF

Sequence of Cyclin-dependent kinase 1 (P06493 whole entry): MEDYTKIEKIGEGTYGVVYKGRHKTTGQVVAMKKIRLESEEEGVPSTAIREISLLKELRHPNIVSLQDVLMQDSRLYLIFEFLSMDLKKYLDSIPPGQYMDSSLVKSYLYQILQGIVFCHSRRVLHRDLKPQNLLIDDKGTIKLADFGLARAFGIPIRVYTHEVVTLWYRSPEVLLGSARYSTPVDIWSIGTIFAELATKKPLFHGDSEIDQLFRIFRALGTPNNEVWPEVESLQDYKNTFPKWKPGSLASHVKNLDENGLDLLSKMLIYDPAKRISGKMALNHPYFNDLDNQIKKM
Sequence of Calcium/calmodulin-dependent protein kinase type II subunit gamma (Q13555 whole entry, canonical isoform): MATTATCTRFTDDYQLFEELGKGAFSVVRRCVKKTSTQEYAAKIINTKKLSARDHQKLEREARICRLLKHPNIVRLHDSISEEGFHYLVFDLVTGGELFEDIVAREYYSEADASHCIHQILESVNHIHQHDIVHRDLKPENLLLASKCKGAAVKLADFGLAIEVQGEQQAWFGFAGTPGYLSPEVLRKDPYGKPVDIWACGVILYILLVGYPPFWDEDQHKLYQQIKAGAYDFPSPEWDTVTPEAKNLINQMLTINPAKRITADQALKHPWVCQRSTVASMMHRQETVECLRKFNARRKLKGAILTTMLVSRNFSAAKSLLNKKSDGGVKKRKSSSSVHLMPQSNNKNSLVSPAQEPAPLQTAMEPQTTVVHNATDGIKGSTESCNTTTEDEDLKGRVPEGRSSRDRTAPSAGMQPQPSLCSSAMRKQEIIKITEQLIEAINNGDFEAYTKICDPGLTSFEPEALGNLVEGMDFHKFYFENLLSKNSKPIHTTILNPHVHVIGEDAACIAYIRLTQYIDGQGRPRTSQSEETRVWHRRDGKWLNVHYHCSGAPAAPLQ
Sequence of Cyclin-dependent kinase 5 (Q00535 whole entry): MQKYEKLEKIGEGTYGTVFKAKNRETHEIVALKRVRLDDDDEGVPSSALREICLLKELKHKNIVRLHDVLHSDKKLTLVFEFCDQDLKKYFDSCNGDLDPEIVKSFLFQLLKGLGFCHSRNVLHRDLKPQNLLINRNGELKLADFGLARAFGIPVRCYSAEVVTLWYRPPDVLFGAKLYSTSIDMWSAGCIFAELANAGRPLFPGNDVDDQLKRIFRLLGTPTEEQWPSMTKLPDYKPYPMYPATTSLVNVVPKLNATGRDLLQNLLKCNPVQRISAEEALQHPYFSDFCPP

Structure (SMILES): COc1ccc(-c2nnc(NC(=O)c3ccc(F)cc3)o2)cc1
- IC50 [1]: > 118 µM (inactive)

Structure (SMILES): CCn1c(-c2nonc2N)nc2cnc(Oc3cccc(NC(=O)c4ccc(OCCN5CCOCC5)cc4)c3)cc21 [GSK-269962A]
- Ki [2]: > 7.94 µM (inactive)
- Ki [3]: > 10 µM (inactive)
- Ki [4]: > 6.31 µM (inactive)
- Ki [5]: > 6.31 µM (inactive)
